Experimental data from patent publication US20250073198A1, “COMPOUNDS AND USE THEREOF FOR THE TREATMENT OF DISEASES ASSOCIATED WITH IMPAIRED ß-GALACTOSIDASE ACTIVITY” (DORPHAN SA, priority 2022, published 2025).

Assays:
[1] = target: T1, cathepsin B (Sus scrofa, UniProt A1E295); test: In-vitro enzymatic activity assay on isolated cathepsin B (pork liver homogenate, Z-FR-AMC substrate); format: biochemical; settings: for IC50: ester prodrug hydrolysed with NaOH to the free acid, 1 hour at 37° C., pH 6.0, read-out: IC50, inhibition of cathepsin B (catB) activity in pork liver homogenate; for inhibitory activity against isolated catB, compared to E64c: pork liver homogenate, result in words
T1 construct: from tissue; host or cells: pork liver homogenate
Method: The ability of the compounds VRO006_hydrol, VRO047_hydrol, VRO052_hydrol, VRO059_hydrol, VRO073_hydrol, VRO109_hydrol, VRO244_hydrol, VRO001_hydrol, VRO082_hydrol, VRO035_hydrol, VRO119_hydrol, and VRO243_hydrol to inhibit isolated cathepsin B was assessed in an enzymatic assay and compared to the inhibitory activity of the prior art E64c. In this assay, the compounds VRO006, VRO042, VRO047, VRO052, VRO059, VRO073, VRO109, VRO244, VRO001, VRO082, VRO035, VRO119, and VRO243 were used and the assay was performed in the presence of NaOH, in order to simulate the ester cleavage that occurs within the gastrointestinal tract, and to release the free acid (VROxxx_hydrol compound) from the prodrug (corresponding VROxxx compound). The chemical structures of compounds […], VRO042, VRO047, VRO052, VRO059, VRO073, […] and VRO244 and their chemical names are provided in [Table 2] above. The structures of VRO001, VRO082, VRO035, VRO119 and VRO243 are provided in [Table 3] below. The cathepsin B was from pork liver homogenate.
The enzymatic assay was performed as follows. Samples of homogenized pork liver (75 mg of fresh tissue per sample) were incubated for 1 hour at 37° C. with Z—FR-AMC (benzyloxycarbonyl-L-[…]-4-methylcoumaryl-7-amide) at […] in 1 M sodium acetate pH 6.0, supplemented with 2.5 mM EDTA, 2.5 mM DTT and 0.1% Triton X-100, and graded concentrations of test substances (between 0.1 nM and […]). The stock solutions of test substances were at 20 mM in DMSO. Fluorescence was determined at 445 nm using 365 nm as the excitation wavelength.

[2] = prior art statement; cited from earlier work
[3] = including pediatric patients; cited from earlier work

| Structure (SMILES) | IC50 [1] [nM] | inhibitory activity against isolated catB, compared to E64c [1] | penetration of the blood-brain barrier [2] | toxicity for human in 3-year clinical trials [3] |
| --- | --- | --- | --- | --- |
| O=C(NCc1ccccc1F)[C@H](CC(F)(F)F)NC(=O)[C@H]1O[C@@H]1C(=O)O [VRO244_hydrol, (2S,3S)-3-(((S)-4,4,4-trifluoro-1-((2-fluorobenzyl)amino)-1-oxobutan-2-yl)carbamoyl)oxirane-2-carboxylic acid] | ≤ 100 | only slightly lower than the prior art E64c | – | – |
| CC(C)CCN(C)C(=O)[C@H](CC(C)C)NC(=O)[C@H]1O[C@@H]1C(=O)O [VRO006_hydrol, (2S,3S)-3-(((S)-1-(isopentyl(methyl)amino)-4-methyl-1-oxopentan-2-yl)carbamoyl)oxirane-2-carboxylic acid] | ≤ 100 | – | – | – |
| CC(C)CC(NC(=O)C1OC1C(=O)O)C(=O)NCCC(F)(F)F (stereo not shown) [VRO035_hydrol] | > 100 | inhibitory activity was lost | – | – |
| CCOC(=O)[C@H]1O[C@@H]1C(=O)N[C@@H](CC(C)C)C(=O)NCCC(C)C [Compound E64d] | – | – | low penetration of the blood-brain barrier | non-toxicity for human |
| COCCNC(=O)[C@H](CC(C)C)NC(=O)[C@H]1O[C@@H]1C(=O)O [VRO047_hydrol, (2S,3S)-3-(((S)-1-((2-2-methoxyethyl)amino)-4-methyl-1-oxopentan-2-yl)carbamoyl)oxirane-2-carboxylic acid] | ≤ 100 | almost the same activity as E64c | – | – |
| COCC(NC(=O)C1OC1C(=O)O)C(=O)NCCC(C)C (stereo not shown) [VRO082_hydrol] | > 100 | did not allow to maintain the inhibitory activity | – | – |
| CC(C)CCN(C)C(=O)C(CC(F)(F)F)NC(=O)C1OC1C(=O)O (stereo not shown) [VRO243_hydrol] | > 100 | drastic loss of activity | – | – |
| CC(C)C[C@H](NC(=O)[C@H]1O[C@@H]1C(=O)O)C(=O)NCCCN1CCCCC1 [VRO059_hydrol, (2S,3S)-3-(((S)-4-methyl-1-oxo-1-((3-(piperidin-1-yl)propyl)amino)pentan-2-yl)carbamoyl)oxirane-2-carboxylic acid] | ≤ 100 | almost similar to E64c | – | – |
| CC(C)CCNC(=O)C(Cc1ccccn1)NC(=O)C1OC1C(=O)O (stereo not shown) [VRO119_hydrol] | > 100 | not tolerated | – | – |
| CC(C)C[C@H](NC(=O)[C@H]1O[C@@H]1C(=O)O)C(=O)NCCc1ccccn1 [VRO052_hydrol, (2S,3S)-3-(((S)-4-methyl-1-oxo-1-((2-(pyridin-2-yl)ethyl)amino)pentan-2-yl)carbamoyl)oxirane-2-carboxylic acid] | ≤ 100 | only slightly reduced | – | – |
| CC(C)CCNC(=O)[C@H](CC(F)(F)F)NC(=O)[C@H]1O[C@@H]1C(=O)O [VRO109_hydrol, (2S,3S)-3-(((S)-4,4,4-trifluoro-1-(isopentylamino)-1-oxobutan-2-yl)carbamoyl)oxirane-2-carboxylic acid] | ≤ 100 | increased compared to E64c | – | – |
| CC(C)CCNC(=O)C(CC(C)C)N(C)C(=O)C1OC1C(=O)O (stereo not shown) [VRO001_hydrol] | > 100 | unable to inhibit catB | – | – |
| COCCCNC(=O)[C@H](CC(C)C)NC(=O)[C@H]1O[C@@H]1C(=O)O [VRO042_hydrol, (2S,3S)-3-(((S)-1-((3-3-methoxypropyl)amino)-4-methyl-1-oxopentan-2-yl)carbamoyl)oxirane-2-carboxylic acid] | ≤ 100 | maintaining efficient inhibition of catB | – | – |
| CCOC(=O)[C@H]1O[C@@H]1C(=O)N[C@@H](CC(C)C)C(=O)N(C)CCC(C)C [VRO006, Ethyl (2S,3S)-3-(((S)-1-(isopentyl(methyl)amino)-4-methyl-1-oxopentan-2-yl)carbamoyl)oxirane-2-carboxylate] | – | quite similar to the one of E64c | – | – |
| CC(C)C[C@H](NC(=O)[C@H]1O[C@@H]1C(=O)O)C(=O)NCc1ccccc1F [VRO073_hydrol, (2S,3S)-3-(((S)-1-((2-fluorobenzyl)amino)-4-methyl-1-oxopentan-2-yl)carbamoyl)oxirane-2-carboxylic acid] | ≤ 100 | only slightly reduced | – | – |
